# According to ChEMBL document CHEMBL1123451, “Enol lactone inhibitors of serine proteases. The effect of regiochemistry on the inactivation behavior of phenyl-substituted (halomethylene)tetra- and -dihydrofuranones and (halomethylene)tetrahydropyranones toward alpha-chymotrypsin: stable acyl enzyme intermediate” (J Med Chem, 1986):
# Key:
# [1] = Hydrolysis rate constant of the compound; type: ADME
# [2] = target: T1, Chymotrypsinogen B (Homo sapiens, UniProt P17538); assay: Binding constant alpha-chymotrypsin was determined by competitive inhibition assay with Suc-Ala-Ala-Pro-Phe-pNA as substrate
# [3] = Catalytic rate constant of the compound; type: ADME
# [4] = target: T1, Chymotrypsinogen B; assay: Binding constant alpha-chymotrypsin was determined by competitive inhibition assay with BTEE as substrate
# T1 sequence (P17538 34-164 limits assumed, other chains not shown): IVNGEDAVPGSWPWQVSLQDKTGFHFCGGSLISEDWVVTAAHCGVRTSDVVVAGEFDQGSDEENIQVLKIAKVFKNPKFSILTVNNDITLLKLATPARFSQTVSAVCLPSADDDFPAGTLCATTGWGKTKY
# T1 sequence (P17538 167-263 limits assumed, other chains not shown): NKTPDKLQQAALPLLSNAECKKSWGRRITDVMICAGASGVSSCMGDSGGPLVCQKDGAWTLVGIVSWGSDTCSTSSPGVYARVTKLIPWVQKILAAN
Compound,Kh [1],Ki [2],Kc [3],Ki [4]
O=C1CC(c2ccccc2)C/C(=C\I)O1 (stereo not drawn),0.0068 min⁻¹,0.0053 µM,0.025 min⁻¹,
C=C1CC(c2ccccc2)CC(=O)O1 (stereo not drawn),0.0015 min⁻¹,,,
O=C1CCC(c2ccccc2)/C(=C\I)O1 (stereo not drawn),0.004 min⁻¹,,,55 µM

# Results, then the compound that gave them:
Kh [1],Ki [2],Kc [3],Ki [4],Compound
0.0015 min⁻¹,,,,O=C1C=C(c2ccccc2)/C(=C\I)O1
0.0021 min⁻¹,,,,O=C1CC(c2ccccc2)/C(=C\I)O1 (stereo not drawn)
